The source of these data is patent US11401376B2, “Chemical compounds for coating of nanostructures” (Spago Nanomedical AB, priority 2017, dated 2022).

Holding throughout (format): physicochemical
The nature of data set [1]: Heat treatment, loss of coating (Example 17). Particulars: for Loss of coating: coated nanostructures, 80° C. for 30 minutes, washed on 10 kDa filter, Si/P ratio by ICP-OES. The procedure: The sample was moved to a 20 mL flask and degassed by three N2-vacuum cycles and was then kept under N2. The sample was heated in a silicon oil bath at 80° C. for 30 minutes and was then cooled to ambient room temperature. A reference aliquot was withdrawn (A). The remaining sample was washed with four times with milliQ water on a 10 kDa Vivaspin 6 centrifugation filter (Sartorious). A reference aliquot (B) was withdrawn from the retentate. Reference aliquots A, and B were analyzed with ICP-OES.

Data set [2] can be described thus: Calcium induced aggregation of the coated nanostructures (Example 15). Particulars: 0-8 mM CaCl2, 10 mM Tris-HCl 150 mM NaCl pH 7.4, 1 h room temperature. The procedure:
Volumes of nanostructure were added to 1 ml aliquots of 10 mM Tris-HCl 150 mM NaCl pH 7.4 containing 0, 0.5, 1, 2, 4 and 8 mM CaCl2) in microcentrifuge tubes so that the final concentration of phosphorus was 0.5 mM. The samples were vortexed, incubated at room temperature for 1 h and centrifuged for 10 min at 12000×g. The supernatants (700 μl) were removed and analyzed by ICP for phosphorus concentrations. The phosphorus concentrations were normalized to the concentration in corresponding samples without CaCl2) and plotted as ‘% remaining in solution’ against the concentration of CaCl2) in the reaction mixture. When 90% or more remains in solution the material is considered robust against calcium induced aggregation.

The nature of data set [3]: Stability of coated nanostructures on manganese loading / process conditions (GFC, Example 18). On the procedure: 200 ml of the crude solution of coated nanostructures of Example 13b was added a solution of 0.256 g MnCl2.4H2O dissolved in 2.56 ml ethylene glycol. The pH was adjusted to 4.07 with 1 M NaOH. The manganese solution was added to the reaction. An aliquot A was taken out. The reaction was heated at 100° C. for 25 h 30 min after which the temperature descended to ambient room temperature. An aliquot B was withdrawn.

Regarding “1-[ω-methyl-(ethyleneoxy)12-20]-3-(prop-3-triethoxysilyl-1-yl- [A]”, the Loss of coating in data set [1] was 5%. The “hydrolysis of the coating bound to polymeric nanostructures” value in data set [1] (neutral to basic conditions) was “prone to slow hydrolysis”. For the same substance, in data set [2], the Ca resistance result is recorded as “Y (When 90% or more remains in solution the material is considered robust against calcium induced aggregation)”.

For “4-[ω-methyl-(ethyleneoxy)12-20]hepta-1,6-diene [Compound 43]”, the Loss of coating in data set [1] was 0%.

In the case of “N,N-bis(prop-3-trimethoxysilyl-1-yl)-2-[ω-methyl-(ethyleneoxy)8-11]acetamide [Compound 54]”, the “stability of coated nanostructures under the coating / process conditions” value in data set [3] is listed as “degraded substantially”.
